Measurements published in patent US11633379B2, “Methods of inhibiting PCSK9” (TRUSTEES OF DARTMOUTH COLLEGE, priority 2017, dated 2023).
Read-outs that look alike come from different tables or passages of the source.

How the values were obtained:
[1] = system: HepG2 cells; test: Cell survival, MTT assay; assay type: cell-based, human
Procedure: To study the effect of the compound on cell viability we used 1.25×10^5 HepG2 cells in 96-well culture plates, followed by incubation with media only, media+0.1% DMSO or Media+5 uM of 31/33/34/35 in 0.1% DMSO or with increasing concentration (0.2-50 μM) of 34 in 0.1% DMSO for 40 hours followed by a viability assay knows as MTT. The MTT assay is a colorimetric assay for assessing cell metabolic activity. NAD(P)H-dependent cellular oxidoreductase enzymes may, reflects the number of viable cells present. These enzymes are capable of reducing the tetrazolium dye MTT 3-(4,5-dimethylthiazol-2-yl)-2,5-diphenyltetrazolium bromide to its insoluble formazan, which has a purple color. Tetrazolium dye assays (commonalty known as the MTT assay) is used to measure cytotoxicity (loss of viable cells).

[2] = system: PCSK9; test: Plasma PCSK9 levels in mice (ELISA); assay type: in vivo
Procedure: 1) Single-dose experiments: mice were administered (oral gavage or intra-peritoneal injection) with 200 μl of 34 (30 mg/kg or 100 mg/kg) in 0.1% Tween 80+1% hydroxyethyl cellulose (HEC) in buffered (PBS pH7.4) solution. After 34 administration, 50-70 μl of blood was collected from the retro-orbital plexus every 4-6 hours (for a total of 24 hours). Blood was left to clot at room temperature for 20 min, followed by serum separation (spin at 1000 g for 10 min). Serum was analyzed as specified in the “Serum analyses” section.
2) Daily dosage experiments: mice were administered daily oral gavage with 200 μl of 34 (100 mg/kg) in 0.1% Tween80+1% hydroxyethyl cellulose (HEC) in buffered (PBS pH7.4) solution. 50-70 μl of blood was collected from the retro-orbital plexus on day 3 and day 5 after 34 administration, on day 5 mice were euthanized and liver were collected and analyzed as mentioned below under the “Liver analyses” section. Blood was left to clot at room temperature for 20 min, followed by serum separation (spin at 1000 g for 10 min). Serum was analyzed as described below:
PCSK9 levels—using commercially available ELISA kit (MBL-international, catalog # CY-8079) following the manufacturer instruction.

[3] = system: LDLR; test: LDLR levels in HepG2 cells (western blot); assay type: cell-based, human; conditions: 5 μM, FIG. 3
Excerpt: Protein extracts (IMO were used for immunodetection of intracellular LDLR (western blot analysis) with a commercially available primary antibody against LDLR (ABCAM, catalog #14056), HRP-conjugated secondary antibody (ABCAM, catalog #97135) visualized using an enhanced chemiluminescence (ECL) solution (Cumaric acid, Luminol and hydrogen peroxide), developed in a LiCore imager. See FIG. 3.

[4] = system: LDLR; test: Hepatic LDLR levels in mice (western blot); assay type: in vivo; conditions: livers on day 5 after daily oral 100 mg/kg/day, FIG. 14B
Procedure: 2) Daily dosage experiments: mice were administered daily oral gavage with 200 μl of 34 (100 mg/kg) in 0.1% Tween80+1% hydroxyethyl cellulose (HEC) in buffered (PBS pH7.4) solution. 50-70 μl of blood was collected from the retro-orbital plexus on day 3 and day 5 after 34 administration, on day 5 mice were euthanized and liver were collected and analyzed as mentioned below under the “Liver analyses” section. Blood was left to clot at room temperature for 20 min, followed by serum separation (spin at 1000 g for 10 min). Serum was analyzed as described below: Hepatic LDLR levels—To study whether 34 affect hepatic LDLR levels we used 10 mg of PBS-flushed livers. Livers were minced and proteins were extracted using available RIPA buffer (SIGMA-ALDRICH, catalog #20-188). Protein extracts (5 μgr) were used for immunodetection of intracellular LDLR (western blot analysis) with a commercially available primary antibody against LDLR (ABCAM, catalog #14056), HRP-conjugated secondary antibody (ABCAM, catalog #97135) visualized using an enhanced chemiluminescence (ECL) solution (Cumaric acid, Luminol and hydrogen peroxide), developed in a LiCore imager.

[5] = system: AST; parameters: species or system mice; conditions: mouse, in vivo, po
Procedure: 1) Single-dose experiments: mice were administered (oral gavage or intra-peritoneal injection) with 200 μl of 34 (30 mg/kg or 100 mg/kg) in 0.1% Tween 80+1% hydroxyethyl cellulose (HEC) in buffered (PBS pH7.4) solution. After 34 administration, 50-70 μl of blood was collected from the retro-orbital plexus every 4-6 hours (for a total of 24 hours). Blood was left to clot at room temperature for 20 min, followed by serum separation (spin at 1000 g for 10 min). Serum was analyzed as specified in the “Serum analyses” section. 2) Daily dosage experiments: mice were administered daily oral gavage with 200 μl of 34 (100 mg/kg) in 0.1% Tween80+1% hydroxyethyl cellulose (HEC) in buffered (PBS pH7.4) solution. 50-70 μl of blood was collected from the retro-orbital plexus on day 3 and day 5 after 34 administration, on day 5 mice were euthanized and liver were collected and analyzed as mentioned below under the “Liver analyses” section. Blood was left to clot at room temperature for 20 min, followed by serum separation (spin at 1000 g for 10 min). Serum was analyzed as described below: AST activity—using commercially available activity assay (SIGMA-ALDRICH, catalog # MAK055) following the manufacturer instruction.

[6] = biological target: recombinant PCSK9 (Homo sapiens, UniProt Q8NBP7); test: PCSK9 detection interference (ELISA); conditions: FIG. 5A
recombinant PCSK9, sequence (Q8NBP7 153-692): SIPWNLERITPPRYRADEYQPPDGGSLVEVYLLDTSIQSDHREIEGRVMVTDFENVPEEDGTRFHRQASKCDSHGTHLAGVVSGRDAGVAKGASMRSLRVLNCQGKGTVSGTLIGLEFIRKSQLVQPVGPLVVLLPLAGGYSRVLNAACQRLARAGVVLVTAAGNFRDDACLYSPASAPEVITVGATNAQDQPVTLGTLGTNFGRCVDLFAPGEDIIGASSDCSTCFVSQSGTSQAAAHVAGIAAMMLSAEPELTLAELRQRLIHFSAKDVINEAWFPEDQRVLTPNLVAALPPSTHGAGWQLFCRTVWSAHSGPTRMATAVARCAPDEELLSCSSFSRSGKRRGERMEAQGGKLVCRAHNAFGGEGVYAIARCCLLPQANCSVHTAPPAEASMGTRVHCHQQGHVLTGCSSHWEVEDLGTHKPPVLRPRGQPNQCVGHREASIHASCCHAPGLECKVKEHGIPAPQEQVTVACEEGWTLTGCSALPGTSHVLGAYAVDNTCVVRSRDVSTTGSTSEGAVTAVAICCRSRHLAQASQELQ
Procedure: To study whether 34 directly interfere with PCSK9 detection we used recombinant PCSK9 (30 ng/ml) was mixed with increasing concentration (0.2-50 μM) of 34 in 0.1% DMSO followed by detection of PCSK9 using commercially available ELISA kit (MBL-international, catalog # CY-8079) following the manufacturer instruction.

[7] = system: PCSK9 mRNA; test: PCSK9 transcription in HepG2 cells (real-time PCR); assay type: cell-based, human; conditions: FIG. 1B
Procedure: To study whether 34 affect PCSK9 mRNA levels we used 1×10^6 HepG2 cells in 6-well culture plates, followed by incubation with media+0.1% DMSO or increasing concentration (0.2-50 μM) of 34 in 0.1% DMSO for 24 hours. After 24 hours media was aspirated, cells were washed with HBSS followed by RNA extraction kit (RNeasy, QIAGEN cat #74-104). mRNA was reversed transcribed to cDNA using commercially available kit (ThermoFisher, cat #4368814) and analyzed using real-time PCR for PCSK9 transcript levels using the relative expression method known as delta-delta CT.

CC(=O)Oc1ccc(C2CC3(CCCCC3)c3c2[nH]c2ccccc32)cc1 (centres unmarked) [Compound 34]
cell death ([1]; 20 μM and 50 μM, HepG2, FIG. 4B): increased cell death | HepG2 cell survival (MTT) ([1]; concentrations up to 5 μM, FIGS. 4A-4B): does not affect HepG2 cell survival at concentrations up to 5 μM | individual mice with a drop in PCSK9 levels ([2]; 5-day oral 100 mg/kg/day, FIG. 12B): all mice receiving compound 34 presented with a drop in PCSK9 levels | drop in plasma PCSK9 ([2]; 5-day oral 100 mg/kg/day, day 5, FIG. 12A): 36.2% | maximal drop in plasma PCSK9 ([2]; single 30 mg/kg intraperitoneal (IP) injection, 4 hours after administration, FIG. 9): 43.2% | maximal drop in plasma PCSK9 ([2]; single 30 mg/kg oral gavage, 4 hours after administration, FIG. 9): 22.5% | time after administration at which PCSK9 levels are back to baseline ([2]; single 30 mg/kg, IP or oral, FIG. 9): 20 h | maximal drop in plasma PCSK9 ([2]; single oral 30 mg/kg, 6 hours after administration, FIG. 10A): 28.5% | time after administration at which PCSK9 levels are back to baseline ([2]; single oral 30 mg/kg, FIG. 10A): 18 h | maximal drop in plasma PCSK9 ([2]; single oral 100 mg/kg, 6 hours after administration, FIG. 10B): 33.4% | time after administration at which PCSK9 levels are back to baseline ([2]; single oral 100 mg/kg, FIG. 10B): 24 h | increase in LDLR protein levels [3]: 21% | increase in hepatic LDLR [4]: 16.2% | liver function (measured as AST activity) ([5]; 100 mg/kg): not affected | liver function (measured as AST activity) ([5]; 100 mg/kg/day): not affected | interference with PCSK9 detection [6]: does not interfere with PCSK9 detection | PCSK9 mRNA levels [7]: reduces levels of PCSK9 mRNA in a dose-dependent manner
